Experimental data published in patent US8530497B2, “Crystalline salts of a potent HCV inhibitor” (Boehringer Ingelheim International GmbH, priority 2010, dated 2013).

How the values were obtained:
[1] = Intrinsic dissolution rate (Van Kel VK7000 dissolution tester, Wood's die); assay type: physicochemical; settings: for Dissolution Rate: pH 6.8 (20 mM sodium phosphate), 37° C., 100 rpm
Experimental: 6. Dissolution Studies Intrinsic dissolution rates were evaluated using Van Kel VK7000 dissolution tester and 400 mL dissolution bath with a rotation rate of 100 rpm at 37° C. Samples were prepared using approximately 50 mg of API in a 6 mm diameter Wood's die with compression force of 3 kN and 15 seconds dwell time by Carver press. The test was performed in 400 mL of pH 6.8 (20 mM sodium phosphate). Samples were collected at 2, 5, 10, 15, 20, 25, and 30 minutes, and the collected samples were unfiltered or filtered using […] PDVF filter. The concentrations of the drug were determined by HPLC using isocratic Method with fluorescence detection.

[2] = Dynamic Vapor Sorption (DVS) moisture gain; assay type: physicochemical; settings: through 85% RH at 25° C.; for hygroscopic properties (DVS): conditions used in the analysis
Experimental: 4. Dynamic Vapor Sorption Dynamic water sorption analyses were performed using Surface Measurement Systems DVS or DVS-HT, or VTI SGA-100 instruments. Sample sizes ranged from 4 mg to 13 mg. Three cycles of water sorption/desorption were run at 25° C. with change of relative humidity from 5-10% increments from 5% to 95%. The criteria for the step were weight change less than or equal to 0.002% or maximum time of 3 hours.

SMILES: C=C[C@@H]1C[C@]1(NC(=O)[C@@H]1C[C@@H](Oc2cc(-c3csc(NC(=O)C(C)C)n3)nc3c(Br)c(OC)ccc23)CN1C(=O)[C@@H](NC(=O)OC1CCCC1)C(C)(C)C)C(=O)O [HEA]
- dissolution rate compared with the sodium salt ([1]; pH 6.8): comparable to the sodium salt
- Dissolution Rate [1]: 1.1 µg/min/mL
- moisture gain by Dynamic Vapor Sorption [2]: < 2.5%
- hygroscopic properties (DVS) [2]: non-hygroscopic

SMILES: C=C[C@@H]1C[C@]1(NC(=O)[C@@H]1C[C@@H](Oc2cc(-c3csc(NC(=O)C(C)C)n3)nc3c(Br)c(OC)ccc23)CN1C(=O)[C@@H](NC(=O)OC1CCCC1)C(C)(C)C)C(=O)O [NA]
- Dissolution Rate [1]: 1.3 µg/min/mL

SMILES: C=C[C@@H]1C[C@]1(NC(=O)[C@@H]1C[C@@H](Oc2cc(-c3csc(NC(=O)C(C)C)n3)nc3c(Br)c(OC)ccc23)CN1C(=O)[C@@H](NC(=O)OC1CCCC1)C(C)(C)C)C(=O)O [TH]
- dissolution rate relative to the sodium salt or HEA ([1]; pH 6.8): > 10 fold
- Dissolution Rate [1]: 64.4 µg/min/mL
- moisture gain by Dynamic Vapor Sorption [2]: < 4%
- hygroscopic properties (DVS) [2]: non-hygroscopic or slightly hygroscopic
